One experiment has as its target T1, BRAF V600E (Homo sapiens, UniProt P15056+Q96SW2, V600E).
T1 construct: knock-in of the HiBiT tag to the endogenous BRAF V600E locus; host or cells: A375.10 (A375 clonal line, CRISPR HiBiT knock-in at the endogenous BRAF V600E locus)
Kind of experiment: BRAF V600E HiBiT Degradation Assay. The experiment is classed as cell-based. An outline of the steps: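 Endogenous HiBiT knock-in on BRAF V600E in A375 cells (clone A375.10); 11-point half-log series, top 10 μM, 2, 6 or 24 h at 37° C. Lytic HiBiT luminescence, background-subtracted, normalized to DMSO; 4-parameter fit gives DC50, Emax (residual protein) and IP (inflection point).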

The subject of a further experiment is A375-NRAS^Q61K cells. Kind of experiment: CTGlo Cell Viability Assay, A375-NRAS^Q61K (A375.11) cells, 96 hours. The class given is cell-based, human. As to conditions: A375.11 (A375-NRAS^Q61K) cells; for Emax / CTGlo A375.11 96 hours Emax: lowest % viability achieved. In a few lines: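 Viability as CellTiter-Glo ATP luminescence after 96 h compound exposure at 37 °C; A375.11 (BRAF V600E/NRAS Q61K) cells at 250/well, top final concentration 10 μM in half-log steps. Signal was background-corrected and set relative to DMSO controls. A 4-parameter logistic fit gave GI50 (50% crossing) and Emax.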

Where [1] appears, read: A375.10 cells, BRAF V600E, 2 hours, inflection point, read-out: HiBiT-Degradation A375.10 BRAF 2 hours IP.
[2] abbreviates: A375.10 cells, BRAF V600E, 2 hours, read-out: HiBiT-Degradation A375.10 BRAF 2 hours DC50.
Where [3] appears, read: A375.10 cells, BRAF V600E, 2 hours, residual protein remaining, read-out: HiBiT-Degradation A375.10 BRAF 2 hours Emax.
The mark [4] stands for this setting: A375.10 cells, HiBiT, BRAF V600E, 24 hours, read-out: HiBiT-Degradation A375.10 BRAF 24 hours DC50.
Where [5] appears, read: A375.10 cells, HiBiT, BRAF V600E, 24 hours, read-out: HiBiT-Degradation A375.10 BRAF 24 hours Emax.
The mark [6] stands for this setting: A375.10 cells, HiBiT, BRAF V600E, 24 hours, read-out: HiBiT-Degradation A375.10 BRAF 24 hours IP.

Like-named read-outs stand apart in the source and are kept apart here.

Usually GI50 stands for the concentration giving 50% growth inhibition. Read a low GI50 as greater sensitivity of the cells.

T1 sequence (P15056 whole entry V600E): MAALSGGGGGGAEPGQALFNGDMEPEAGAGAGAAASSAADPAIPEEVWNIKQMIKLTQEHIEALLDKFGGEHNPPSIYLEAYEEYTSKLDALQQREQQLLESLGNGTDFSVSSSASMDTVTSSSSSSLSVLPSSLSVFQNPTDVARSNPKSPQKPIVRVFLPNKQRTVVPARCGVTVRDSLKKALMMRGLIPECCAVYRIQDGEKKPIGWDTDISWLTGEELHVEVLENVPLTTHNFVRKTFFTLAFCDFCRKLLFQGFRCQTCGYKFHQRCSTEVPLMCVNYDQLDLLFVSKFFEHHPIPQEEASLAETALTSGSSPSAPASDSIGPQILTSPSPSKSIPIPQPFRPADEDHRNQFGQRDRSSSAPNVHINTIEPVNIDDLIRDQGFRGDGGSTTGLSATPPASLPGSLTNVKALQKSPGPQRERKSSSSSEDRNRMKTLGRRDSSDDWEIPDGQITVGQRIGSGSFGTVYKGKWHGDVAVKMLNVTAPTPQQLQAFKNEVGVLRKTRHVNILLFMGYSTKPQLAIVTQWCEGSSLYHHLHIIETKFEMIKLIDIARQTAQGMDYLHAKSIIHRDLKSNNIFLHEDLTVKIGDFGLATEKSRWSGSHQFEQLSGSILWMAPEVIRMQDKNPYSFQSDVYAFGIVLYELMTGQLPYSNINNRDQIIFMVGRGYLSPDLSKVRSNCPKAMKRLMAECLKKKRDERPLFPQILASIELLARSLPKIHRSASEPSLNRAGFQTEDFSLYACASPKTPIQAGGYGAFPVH
T1 sequence (Q96SW2 whole entry): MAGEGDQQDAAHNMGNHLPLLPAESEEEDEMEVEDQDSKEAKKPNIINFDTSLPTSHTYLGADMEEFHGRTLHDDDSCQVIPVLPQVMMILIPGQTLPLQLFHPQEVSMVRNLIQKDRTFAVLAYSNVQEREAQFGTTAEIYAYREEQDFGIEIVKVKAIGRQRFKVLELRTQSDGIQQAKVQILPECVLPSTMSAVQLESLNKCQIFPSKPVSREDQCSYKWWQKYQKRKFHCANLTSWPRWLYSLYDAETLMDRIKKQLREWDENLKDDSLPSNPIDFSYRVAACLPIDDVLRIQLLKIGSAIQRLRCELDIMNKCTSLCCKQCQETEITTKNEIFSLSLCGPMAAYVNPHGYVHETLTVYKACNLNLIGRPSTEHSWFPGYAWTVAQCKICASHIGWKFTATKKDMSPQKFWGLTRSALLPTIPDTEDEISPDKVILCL
T1 sequence (Q16531 whole entry partner): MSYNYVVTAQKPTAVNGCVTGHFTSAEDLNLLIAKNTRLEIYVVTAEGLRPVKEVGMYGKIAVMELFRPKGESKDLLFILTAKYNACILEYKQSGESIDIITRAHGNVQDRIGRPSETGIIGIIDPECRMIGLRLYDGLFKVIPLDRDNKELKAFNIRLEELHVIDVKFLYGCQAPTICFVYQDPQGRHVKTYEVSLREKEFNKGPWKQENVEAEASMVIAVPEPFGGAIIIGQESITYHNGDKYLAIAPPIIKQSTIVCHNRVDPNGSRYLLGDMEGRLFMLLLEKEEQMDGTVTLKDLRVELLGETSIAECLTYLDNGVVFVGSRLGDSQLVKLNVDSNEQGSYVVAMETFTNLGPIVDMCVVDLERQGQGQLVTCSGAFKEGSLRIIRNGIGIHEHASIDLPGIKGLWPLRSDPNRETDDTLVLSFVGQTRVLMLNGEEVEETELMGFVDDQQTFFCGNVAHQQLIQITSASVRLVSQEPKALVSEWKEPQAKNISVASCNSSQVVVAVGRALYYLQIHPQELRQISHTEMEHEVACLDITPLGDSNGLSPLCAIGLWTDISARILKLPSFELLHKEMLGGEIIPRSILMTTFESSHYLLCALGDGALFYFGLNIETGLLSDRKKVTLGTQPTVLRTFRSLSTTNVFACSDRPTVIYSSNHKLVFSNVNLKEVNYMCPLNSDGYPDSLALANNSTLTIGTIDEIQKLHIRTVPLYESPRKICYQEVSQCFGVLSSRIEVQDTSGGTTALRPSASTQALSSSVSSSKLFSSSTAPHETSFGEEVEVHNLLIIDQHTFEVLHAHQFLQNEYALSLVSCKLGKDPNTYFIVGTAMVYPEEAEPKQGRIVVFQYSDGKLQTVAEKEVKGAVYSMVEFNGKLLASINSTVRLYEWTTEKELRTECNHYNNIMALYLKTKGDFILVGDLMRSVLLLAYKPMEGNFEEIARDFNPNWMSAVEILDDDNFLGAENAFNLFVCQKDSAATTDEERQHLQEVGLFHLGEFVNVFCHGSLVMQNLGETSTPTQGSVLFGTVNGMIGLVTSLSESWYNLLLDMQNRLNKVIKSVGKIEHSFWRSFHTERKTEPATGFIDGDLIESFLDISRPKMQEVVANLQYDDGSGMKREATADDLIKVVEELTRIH

For the compound `CCN(C)S(=O)(=O)Nc1ccc(F)c(Oc2ccc3ncn(C4CC5(CCN(CC6(O)CCN(c7cc8c(cc7F)c(N7CCC(=O)NC7=O)nn8C)CC6)CC5)C4)c(=O)c3c2)c1C#N` [Compound 226, 6-[2-cyano-3-[[ethyl(methyl)sulfamoyl]amino]-6-fluoro-phenoxy]-3-[7-[[1-[3-(2,4-dioxohexahydropyrimidin-1-yl)-5-fluoro-1-methyl-indazol-6-yl]-4-hydroxy-4-piperidyl]methyl]-7-azaspiro[3.5]nonan-2-yl]-4-oxo-quinazoline], the DC50 on BRAF V600E (setting [1]), at BRAF V600E (setting [2]), on BRAF V600E (setting [4]) and on BRAF V600E (setting [6]) was below 1 µM each time. Moreover, the Emax on BRAF V600E (setting [3]) is below 50%; at BRAF V600E (setting [5]), below 50%; in the experiment with A375-NRAS^Q61K cells (Homo sapiens, 96 h), 50 to 90%. In the experiment on A375-NRAS^Q61K cells (Homo sapiens, 96 h), the 50% growth inhibitory concentration (GI50) was below 1 µM.

With `CCN(C)S(=O)(=O)Nc1ccc(F)c(Oc2ccc3ncn([C@H]4CO[C@]5(CCN(C6CCC(c7cc8c(cc7F)c(N7CCC(=O)NC7=O)nn8C)CC6)C5)C4)c(=O)c3c2)c1C#N` (single isomer, unassigned) [Compound 289], the DC50 at BRAF V600E (setting [1]), on BRAF V600E (setting [2]), on BRAF V600E (setting [4]) and on BRAF V600E (setting [6]) was below 1 µM each time. On BRAF V600E (A375.10 cells, BRAF V600E, 2 hours, residual protein remaining), the “HiBiT-Degradation A375.10 BRAF 2 hours Emax” value is recorded as “*** (<=50%)”. On BRAF V600E (setting [5]), the Emax was below 50%. This compound also showed a GI50 with A375-NRAS^Q61K cells below 1 µM. Further, the “CTGlo A375.11 96 hours Emax” value in the experiment with A375-NRAS^Q61K cells is given as “*** (<=50%)”.

As to `CN(CCO)S(=O)(=O)Nc1ccc(F)c(Oc2ccc3ncn(C4CC5(CCN(C6CC7(C6)CN(c6cc8c(cc6F)c(N6CCC(=O)NC6=O)nn8C)C7)CC5)C4)c(=O)c3c2)c1F` (centres unmarked) [Compound 197, 6-[2,6-difluoro-3-[[2-hydroxyethyl(methyl)sulfamoyl]amino]phenoxy]-3-[7-[2-[3-(2,4-dioxohexahydropyrimidin-1-yl)-5-fluoro-1-methyl-indazol-6-yl]-2-azaspiro[3.3]heptan-6-yl]-7-azaspiro[3.5]nonan-2-yl]-4-oxo-quinazoline], the DC50 on BRAF V600E (setting [1]) is below 1 µM; on BRAF V600E (setting [2]), 1 to 10 µM. For the same compound, the Emax on BRAF V600E (setting [3]) fell in the range of 50 to 90%; in the experiment on A375-NRAS^Q61K cells (Homo sapiens, 96 h), 50 to 90%. This compound also yielded a 50% growth inhibitory concentration (GI50) with A375-NRAS^Q61K cells (Homo sapiens, 96 h) of 1 to 10 µM.

With `CCN(C)S(=O)(=O)Nc1ccc(F)c(Oc2ccc3ncc([C@H]4COC5(CCN(C6CCC(c7ccc(NC8CCC(=O)NC8=O)cc7F)CC6)CC5)C4)nc3c2)c1C#N` (single isomer, unassigned) [Compound 59], at BRAF V600E, the “HiBiT-Degradation A375.10 BRAF 2 hours Emax” value is “** (<90% and >50%)”. Moreover, the DC50 at BRAF V600E (setting [1]) was below 1 µM. Besides, the DC50 on BRAF V600E (setting [2]) was below 1 µM. For the same compound, in the experiment on A375-NRAS^Q61K cells, the GI50 lay within 1 to 10 µM; the “CTGlo A375.11 96 hours Emax” value is “** (<90% and >50%)”.

Take `CCN(C)S(=O)(=O)Nc1ccc(F)c(C(=O)c2ccc3ncn(C4CC5(C4)CN(C4CC6(C4)CN(c4cc7c(cc4F)c(N4CCC(=O)NC4=O)nn7C)C6)C5)c(=O)c3c2)c1F` (centres unmarked) [Compound 306, 3-[2-[2-[3-(2,4-dioxohexahydropyrimidin-1-yl)-5-fluoro-1-methyl-indazol-6-yl]-2-azaspiro[3.3]heptan-6-yl]-2-azaspiro[3.3]heptan-6-yl]-6-[3-[[ethyl(methyl)sulfamoyl]amino]-2,6-difluoro-benzoyl]-4-oxo-quinazoline]: the DC50 on BRAF V600E (setting [1]) and at BRAF V600E (setting [2]) was below 1 µM each time. Besides, the Emax lay within 50 to 90% at BRAF V600E (setting [3]) and 50 to 90% in the experiment on A375-NRAS^Q61K cells (Homo sapiens, 96 h). Further, the GI50 with A375-NRAS^Q61K cells (Homo sapiens, 96 h) is above 10 µM.

Take `CCN(C)S(=O)(=O)Nc1ccc(F)c(Oc2ccc3ncn([C@H]4COC5(CCN(C6CC7(C6)CN(c6ccc(NC8CCC(=O)NC8=O)cc6F)C7)CC5)C4)c(=O)c3c2)c1F` (stereo partly drawn) [Compound 193, (3R)-8-[2-[4-[(2,6-dioxo-3-piperidyl)amino]-2-fluoro-phenyl]-2-azaspiro[3.3]heptan-6-yl]-3-[6-[3-[[ethyl(methyl)sulfamoyl]amino]-2,6-difluoro-phenoxy]-4-oxo-quinazolin-3-yl]-1-oxa-8-azaspiro[4.5]decane]: the Emax on BRAF V600E (setting [3]) was in the range of 50 to 90%; with A375-NRAS^Q61K cells (Homo sapiens, 96 h) it was 50 to 90%. In addition, the DC50 on BRAF V600E (read-out: HiBiT-Degradation A375.10 BRAF 2 hours DC50, A375.10 cells, BRAF V600E, 2 hours) was above 10 µM; on BRAF V600E (read-out: HiBiT-Degradation A375.10 BRAF 2 hours IP, A375.10 cells, BRAF V600E, 2 hours, inflection point), below 1 µM. In addition, in the experiment on A375-NRAS^Q61K cells (Homo sapiens, 96 h), the concentration for 50% growth inhibition (GI50) was in the range of 1 to 10 µM.

Regarding `CCN(C)S(=O)(=O)Nc1ccc(F)c(Oc2ccc3ncn(C4CC5(CCN(C6CC7(C6)CN(c6cc8c(cc6F)c(N6CCC(=O)NC6=O)nn8C)C7)C5)C4)c(=O)c3c2)c1C#N` (single isomer, unassigned) [Compound 302, 6-[2-cyano-3-[[ethyl(methyl)sulfamoyl]amino]-6-fluoro-phenoxy]-3-[6-[2-[3-(2,4-dioxohexahydropyrimidin-1-yl)-5-fluoro-1-methyl-indazol-6-yl]-2-azaspiro[3.3]heptan-6-yl]-6-azaspiro[3.4]octan-2-yl]-4-oxo-quinazoline], the DC50 at BRAF V600E (setting [2]) is below 1 µM. This compound also gave a GI50 in the experiment with A375-NRAS^Q61K cells below 1 µM.

Take `CN(CCO)S(=O)(=O)Nc1ccc(F)c(Oc2ccc3ncn(C4CC5(CCN(C6CCC(c7cc8c(cc7F)c(N7CCC(=O)NC7=O)nn8C)CC6F)CC5)C4)c(=O)c3c2)c1C#N` (single isomer, unassigned) [Compound 146, 6-[2-cyano-6-fluoro-3-[[2-hydroxyethyl(methyl)sulfamoyl]amino]phenoxy]-3-[7-[4-[3-(2,4-dioxohexahydropyrimidin-1-yl)-5-fluoro-1-methyl-indazol-6-yl]-2-fluoro-cyclohexyl]-7-azaspiro[3.5]nonan-2-yl]-4-oxo-quinazoline]: the “HiBiT-Degradation A375.10 BRAF 2 hours Emax” value at BRAF V600E was “** (<90% and >50%)”. The DC50 on BRAF V600E (setting [1]) was below 1 µM; at BRAF V600E (setting [2]) it was above 10 µM. In the experiment with A375-NRAS^Q61K cells, the GI50 is above 10 µM. The “CTGlo A375.11 96 hours Emax” value in the experiment on A375-NRAS^Q61K cells was “** (<90% and >50%)”.

For `CCN(C)S(=O)(=O)Nc1ccc(F)c(Oc2ccc3ncn(C4CC5(CCN(C6CC7(C6)CN(c6cc8c(cc6F)c(N6CCC(=O)NC6=O)nn8C)C7)CC5)C4)c(=O)c3c2)c1F` (centres unmarked) [Compound 164, 3-[7-[2-[3-(2,4-dioxohexahydropyrimidin-1-yl)-5-fluoro-1-methyl-indazol-6-yl]-2-azaspiro[3.3]heptan-6-yl]-7-azaspiro[3.5]nonan-2-yl]-6-[3-[[ethyl(methyl)sulfamoyl]amino]-2,6-difluoro-phenoxy]-4-oxo-quinazoline], the DC50 on BRAF V600E (setting [1]) and at BRAF V600E (setting [2]) was below 1 µM throughout. Also, the Emax at BRAF V600E (setting [3]) fell in the range of 50 to 90%; in the experiment with A375-NRAS^Q61K cells (Homo sapiens, 96 h) it was 50 to 90%. Further, in the experiment with A375-NRAS^Q61K cells (Homo sapiens, 96 h), the concentration for 50% growth inhibition (GI50) was in the range of 1 to 10 µM.

On to `CCN(C)S(=O)(=O)Nc1ccc(F)c(Oc2ccc3ncn(C4CC5(CCN(C6CCC(c7cc8c(cc7F)c(N7CCC(=O)NC7=O)nn8C)CC6)C5)C4)c(=O)c3c2)c1C#N` (single isomer, unassigned) [Compound 206, 6-[2-cyano-3-[[ethyl(methyl)sulfamoyl]amino]-6-fluoro-phenoxy]-3-[6-[4-[3-(2,4-dioxohexahydropyrimidin-1-yl)-5-fluoro-1-methyl-indazol-6-yl]cyclohexyl]-6-azaspiro[3.4]octan-2-yl]-4-oxo-quinazoline], for which the DC50 on BRAF V600E (setting [1]), at BRAF V600E (setting [2]), at BRAF V600E (setting [4]) and on BRAF V600E (setting [6]) was below 1 µM each time. The Emax at BRAF V600E (setting [3]) and at BRAF V600E (setting [5]) was below 50% throughout. This compound returned a concentration for 50% growth inhibition (GI50) in the experiment on A375-NRAS^Q61K cells below 1 µM. In addition, the “CTGlo A375.11 96 hours Emax” value in the experiment with A375-NRAS^Q61K cells is “** (<90% and >50%)”.
